Laboratory results published in article PMC12763877 (Journal of Experimental & Clinical Cancer Research : CR, 2025).

How the values were obtained:
[1] = system: zebrafish retinal vasculature; experiment: Zebrafish hypoxia-induced retinal vascular abnormality model; type: in vivo, zebrafish (Danio rerio); details: CoCl2 5 mM + GS401 2.5 ug/ml; compounds at concentrations < LD50 (A-2 1 µM); imaged at 5 dpf
Procedure: Transgenic zebrafish Tg(flk: EGFP) were obtained from the China Zebrafish Resource Center and maintained at 28 ± 1 °C under a 14-hour light/10-hour dark cycle. […] Survival rates were recorded to calculate the median lethal concentration (LC₅₀). For the retinal angiogenesis assay, embryos at 1 day post fertilization (dpf) were transferred to E3 medium containing 5 mM CoCl₂·6 H₂O and 2.5 µg/mL GS4012 to induce hypoxia and abnormal vessel formation. At 3 dpf, test compounds were added and incubation continued until 5 dpf. Blank, model, and vehicle (≤ 0.1% DMSO) controls were included, with at least three replicates per group (n = 10–15 embryos). At 5 dpf, retinal vasculature was imaged using fluorescence microscopy and analyzed for branching number, vessel length, and density using ImageJ. Data are presented as mean ± standard deviation (SD) and analyzed using one-way ANOVA followed by Tukey’s post hoc test, with p < 0.05 considered statistically significant.
Furthermore, we established a hypoxia-induced vascular dysregulation model with CoCl2 (5mM) and a VEGF inductive agent GS401 (2.5 ug/ml) in zebrafish embryos to assess the capacity of candidate compounds to regulate vascular normalization. Following Zebrafish toxicity profiling, 8 candidate compounds were administered at optimized concentrations (< LD50) to treat the zebrafish vascular abnormality model separately. […]

[2] = system: HUVEC; experiment: Wound healing and Transwell assays; type: cell-based, human; details: candesartan 15, 7.5, 3.75 µM; sunitinib 2 µM; 48 h
Procedure: HUVEC cells were digested and inoculated into 6-well plates, with 1 × 10^5 cells added to each hole. On the second day, the gun head was drawn vertically along the edge of the upper lid of the hole plate. The cells were washed twice with PBS, the scratched cells were removed, and the serum free medium containing drugs was added. The photos were taken and recorded under the microscope for 0 h and cultured in a 5% CO2 incubator at 37℃. After 48 h, the sample was taken and photographed for recording. The cell scratch area was calculated with Image J software.
Migration assays were performed using the Transwell cell culture insert. HUVEC (3 × 10^4 cells) were suspended with 100µL serum-free medium containing different concentrations of compounds and placed in the upper layer of the Transwell cell culture insert, and 300µL medium containing 10% FBS was placed below the cell-permeable membrane. Following an incubation (48 h), the cells that had migrated through the membrane were stained with 0.2% crystal violet for 30 min and count.

[3] = system: HUVEC; experiment: Tube formation assay; type: cell-based, human; details: candesartan 15, 7.5, 3.75 µM; sunitinib 2 µM
Procedure: The 96-well plate was coated with 50 µl matrix glue per well, and then HUVEC was inoculated into the 96-well plate coated with matrix glue with a density of 4 × 10^4 cells per well. Photos were taken with an optical microscope (Nikon, China) after culture at 37℃ and 5% CO2 for 6–8 h, and the length of the generated blood vessels was analyzed using ImageJ.

[4] = system: 4T1 orthotopic breast tumor vasculature; experiment: Tumor vascular normalization in breast cancer mouse model (immunofluorescence, lectin perfusion, HIF-1α IHC, H&E); type: in vivo, BALB/c mice
Procedure: The tumor tissues were then excised. […] All animals were raised in an SPF environment. […] We followed all the rules and regulations.
Paraffin-embedded mouse tumor tissue sections were deparaffinized, rehydrated, and fixed with 4% paraformaldehyde at room temperature for 20 min. After washing with PBS, the sections were permeabilized with 1% Triton X-100 (Solarbio, China) for 15 min at room temperature, followed by blocking with 5% bovine serum albumin (BSA) in PBS containing 0.1% Triton X-100 for 1 h at room temperature to reduce nonspecific binding. The sections were first incubated with primary antibodies against PECAM-1 (CD31) and α-smooth muscle actin (α-SMA), including Alexa Fluor 488-conjugated anti-CD31 antibody (clone SC-376764-AF488, Santa Cruz Biotechnology, […]) and rabbit anti-α-SMA antibody (catalog no. AF0048, Beyotime Biotechnology, China). After washing, the sections were further incubated overnight at 4 °C with primary antibodies against dsDNA and HSP60. The next day, the sections were incubated with Alexa Fluor 647-conjugated goat anti-rabbit IgG (H + L) secondary antibody (catalog no. A0468, Beyotime Biotechnology, China) for 1 h at room temperature in the dark. Nuclear staining was performed using DAPI (catalog no. C0060, Solarbio, China). Finally, all slides were mounted with antifade mounting medium and observed using a […] 5 confocal microscope (Leica Microsystems, Germany).
Immunohistochemical staining was performed on formalin-fixed, paraffin-embedded tissue sections. After deparaffinization and rehydration, antigen retrieval was conducted by heating the sections in citrate buffer (pH 6.0) at 95 °C for 12 min. Endogenous peroxidase activity was blocked by incubation with 3% hydrogen peroxide for 10 min at room temperature, followed by blocking of non-specific binding sites with 10% goat serum for 30 min at room temperature. The sections were then incubated overnight at 4 °C with a primary antibody against HIF-1α (rabbit anti-human, catalog no. 48085 T, Cell Signaling Technology, USA) diluted at 1:200. After washing, the sections were incubated with HRP-conjugated goat anti-rabbit IgG secondary antibody (catalog no. A0208, Beyotime Biotechnology, China) at a dilution of 1:500 for 30 min at room temperature. Color development was achieved using a DAB substrate kit, and the sections were counterstained with hematoxylin. After dehydration, clearing, and mounting with neutral resin, the stained sections were observed and imaged under an inverted microscope.
To quantitatively assess vascular maturation, we performed dual immunofluorescence staining for the endothelial cell marker CD31 and pericyte marker α-SMA in tumor tissues. […] In addition, vascular perfusion indicates their transmission function is crucial for the delivery of chemotherapeutic and […] agents. To evaluate the effect of candesartan on tumor vascular perfusion function, DyLight™649-labeled tomato lectin (40 mg/kg), which specifically labels perfused blood vessels, was injected into the mice via tail vein injection 1.5 h before sacrifice. Then, perform frozen sectioning of the tumor tissue, microvessels were labeled with CD31 by immunofluorescence, and the co-expression percentage of tomato lectin and CD31^+ was observed and calculated. As shown in Fig. 4C-D, only a small fraction of CD31^+ blood vessels in the control group were coated with tomato lectin, with a low percentage of CD31^+Lectin^+.

CCOc1nc2cccc(C(=O)O)c2n1Cc1ccc(-c2ccccc2-c2nnn[nH]2)cc1 [Compound A-2, Candesartan] was tested, and the “Effect on hypoxia-induced retinal vascular pathology (ectopic branching, vascular architecture)” value [1] was “markedly attenuated these pathological features”, the “Migratory and invasive capacities of HUVECs” value [2] was “significantly reduced the migratory and invasive capacities of HUVECs” and the “Tube formation: mean mesh size and total mesh area” value [3] was “increase the mean mesh and the total meshe area”. For the same compound, the “Tube formation: number of junctions, total segment length, number of meshes” value [3] was “significantly reduced the number of junctions, total segment length, and the number of meshes”, the “Percentage of CD31+Lectin+ (vascular perfusion)” value ([4]; 10 mg/kg and 30 mg/kg, tomato lectin) was “significantly increased” and the “Coverage of α-SMA+ pericyte on CD31+ endothelial cell” value ([4]; 10 mg/kg and 30 mg/kg, vs vehicle) was “significant increase”. For the same compound, the “HIF-1α expression in tumor tissues” value ([4]; IHC) was “significant decline”, the “Tumor necrosis (H&E)” value ([4]; high-dose 30 mg/kg) was “tendency towards increased necrosis” and the “Tumor necrosis (H&E)” value ([4]; low-dose 10 mg/kg) was “reduced necrotic areas”.
